The text below walks through data of patent US20040097577A1 (priority 2001, published 2004).

In one data set the test system is children. Particulars: cited from earlier work.
Data set [1] deals with children, most of whom were neurologically multiply disabled. The conditions noted are these: 2 to 10 mg of oral melatonin at bedtime; cited from earlier work.
The test system of data set [2] is patients in the age ranging from 6 to 14 years. In words: pilot study, effect of melatonin on sleep latency (sleep logs, CGI), melatonin versus placebo. The format is in vivo, human. How it is done:
In a pilot study, nine patients in the age ranging from 6 to 14 years were run through a protocol to determine feasibility. A sample of four sleep logs, illustrating response at each of the protocol was determined. […] Patients tolerated the protocol, and parents were able to reliably complete the sleep logs. Some parents had to be trained to do so over several visits. Parents whose children fell asleep extremely late, could not tolerate staying up to find out when they actually fell asleep, and had to be excluded.

For `COc1ccc2[nH]cc(CCNC(C)=O)c2c1` [melatonin, N-acetyl-5-methoxytryptamine], the “adverse effects on long-term use” value with children (children who received melatonin for several years) is on record as “without adverse effects”. The “average onset of sleep after melatonin administration” value in the data set on children (children, 2.5 to 7.5 mg PO once daily before expected bedtime) is ≤ 1 h. In data set [1], the adverse side-effects entry is “no adverse side-effects”; the “health, behavioural and social benefits” value is reported as “significant”. In addition, the CGI data result in data set [2] (melatonin versus placebo) is “not significant”. Moreover, in data set [2] (nine patients, sleep logs, with sleep hygiene), the “difference in response between the melatonin and placebo” value is recorded as “significant difference in response (p=0.03)”.
